Test results reported in ChEMBL document CHEMBL4229426, “Synthesis, antitumor activity evaluation and mechanistic study of novel hederacolchiside A1 derivatives bearing an aryl triazole moiety” (Bioorg Med Chem, 2018).

Columns and labels:
Assay type in all cases: functional, cell-based
[1] = tested on: HT-29; test: Antiproliferative activity against human HT-29 cells after 48 hrs by MTT assay; settings: HT-29, 48 h
[2] = tested on: PC-3; test: Antiproliferative activity against human PC3 cells after 48 hrs by MTT assay; settings: PC-3, 48 h
[3] = tested on: U-937; test: Antiproliferative activity against human U937 cells after 48 hrs by MTT assay; settings: U-937, 48 h
[4] = tested on: HL-60; test: Antiproliferative activity against human HL60 cells after 48 hrs by MTT assay; settings: HL-60, 48 h
[5] = tested on: HepG2; test: Antiproliferative activity against human HepG2 cells after 48 hrs by MTT assay; settings: HepG2, 48 h
[6] = tested on: A549; test: Antiproliferative activity against human A549 cells after 48 hrs by MTT assay; settings: A549, 48 h

SMILES | IC50 [1] [µM] | IC50 [2] [µM] | IC50 [3] [µM] | IC50 [4] [µM] | IC50 [5] [µM] | IC50 [6] [µM]
C[C@@H]1O[C@@H](O[C@H]2[C@H](O[C@H]3CC[C@]4(C)[C@H]5CC=C6[C@@H]7CC(C)(C)CC[C@]7(C(=O)NCc7cn(-c8ccc(Cl)cc8)nn7)CC[C@@]6(C)[C@]5(C)CC[C@H]4C3(C)C)OC[C@H](O[C@@H]3O[C@H](CO)[C@@H](O)[C@H](O)[C@H]3O)[C@@H]2O)[C@H](O)[C@H](O)[C@H]1O | 41 | 5.64 | 0.94 | 4.52 | 2.13 | 1.87
C[C@@H]1O[C@@H](O[C@H]2[C@H](O[C@H]3CC[C@]4(C)[C@H]5CC=C6[C@@H]7CC(C)(C)CC[C@]7(C(=O)NCc7cn(-c8ccccc8Br)nn7)CC[C@@]6(C)[C@]5(C)CC[C@H]4C3(C)C)OC[C@H](O[C@@H]3O[C@H](CO)[C@@H](O)[C@H](O)[C@H]3O)[C@@H]2O)[C@H](O)[C@H](O)[C@H]1O | 5.11 | 5.29 | 0.78 | 3.11 | 2.95 | 2.08
C[C@@H]1O[C@@H](O[C@H]2[C@H](O[C@H]3CC[C@]4(C)[C@H]5CC=C6[C@@H]7CC(C)(C)CC[C@]7(C(=O)NCc7cn(-c8ccccc8Cl)nn7)CC[C@@]6(C)[C@]5(C)CC[C@H]4C3(C)C)OC[C@H](O[C@@H]3O[C@H](CO)[C@@H](O)[C@H](O)[C@H]3O)[C@@H]2O)[C@H](O)[C@H](O)[C@H]1O | 4.18 | 5.28 | 1.03 | 2.26 | 3.92 | 1.81
C[C@@H]1O[C@@H](O[C@H]2[C@H](O[C@H]3CC[C@]4(C)[C@H]5CC=C6[C@@H]7CC(C)(C)CC[C@]7(C(=O)NCc7cn(-c8ccc([N+](=O)[O-])cc8)nn7)CC[C@@]6(C)[C@]5(C)CC[C@H]4C3(C)C)OC[C@H](O[C@@H]3O[C@H](CO)[C@@H](O)[C@H](O)[C@H]3O)[C@@H]2O)[C@H](O)[C@H](O)[C@H]1O | 3.04 | 5.56 | 6.85 | 21.1 | 26.6 | 3.98
COc1ccccc1-n1cc(CNC(=O)[C@]23CCC(C)(C)C[C@H]2C2=CC[C@@H]4[C@@]5(C)CC[C@H](O[C@@H]6OC[C@H](O[C@@H]7O[C@H](CO)[C@@H](O)[C@H](O)[C@H]7O)[C@H](O)[C@H]6O[C@@H]6O[C@@H](C)[C@H](O)[C@@H](O)[C@H]6O)C(C)(C)[C@@H]5CC[C@@]4(C)[C@]2(C)CC3)nn1 | 44.4 | 38 | 7.73 | 12.2 | 17.7 | 6.99
O=c1[nH]cc(F)c(=O)[nH]1 [FLUOROURACIL] | 22.2 | 8.45 | 56.3 | 54.5 | 59.1 | 69.1
Cc1ccccc1-n1cc(CNC(=O)[C@]23CCC(C)(C)C[C@H]2C2=CC[C@@H]4[C@@]5(C)CC[C@H](O[C@@H]6OC[C@H](O[C@@H]7O[C@H](CO)[C@@H](O)[C@H](O)[C@H]7O)[C@H](O)[C@H]6O[C@@H]6O[C@@H](C)[C@H](O)[C@@H](O)[C@H]6O)C(C)(C)[C@@H]5CC[C@@]4(C)[C@]2(C)CC3)nn1 | 5.35 | 5.03 | 4.68 | 3.84 | 1.51 | 4.13
C[C@@H]1O[C@@H](O[C@H]2[C@H](O[C@H]3CC[C@]4(C)[C@H]5CC=C6[C@@H]7CC(C)(C)CC[C@]7(C(=O)NCc7cn(-c8cccc(F)c8)nn7)CC[C@@]6(C)[C@]5(C)CC[C@H]4C3(C)C)OC[C@H](O[C@@H]3O[C@H](CO)[C@@H](O)[C@H](O)[C@H]3O)[C@@H]2O)[C@H](O)[C@H](O)[C@H]1O | 2.23 | 0.72 | 3.12 | 1.32 | 0.9 | 4.25
CC(=O)c1cccc(-n2cc(CNC(=O)[C@]34CCC(C)(C)C[C@H]3C3=CC[C@@H]5[C@@]6(C)CC[C@H](O[C@@H]7OC[C@H](O[C@@H]8O[C@H](CO)[C@@H](O)[C@H](O)[C@H]8O)[C@H](O)[C@H]7O[C@@H]7O[C@@H](C)[C@H](O)[C@@H](O)[C@H]7O)C(C)(C)[C@@H]6CC[C@@]5(C)[C@]3(C)CC4)nn2)c1 | 3.33 | 6.28 | 0.81 | 5.66 | 0.5 | 0.44
Cc1cccc(C)c1-n1cc(CNC(=O)[C@]23CCC(C)(C)C[C@H]2C2=CC[C@@H]4[C@@]5(C)CC[C@H](O[C@@H]6OC[C@H](O[C@@H]7O[C@H](CO)[C@@H](O)[C@H](O)[C@H]7O)[C@H](O)[C@H]6O[C@@H]6O[C@@H](C)[C@H](O)[C@@H](O)[C@H]6O)C(C)(C)[C@@H]5CC[C@@]4(C)[C@]2(C)CC3)nn1 | 7.66 | 8.96 | 8.48 | 4.47 | 3.31 | 6.08
CC(=O)c1ccc(-n2cc(CNC(=O)[C@]34CCC(C)(C)C[C@H]3C3=CC[C@@H]5[C@@]6(C)CC[C@H](O[C@@H]7OC[C@H](O[C@@H]8O[C@H](CO)[C@@H](O)[C@H](O)[C@H]8O)[C@H](O)[C@H]7O[C@@H]7O[C@@H](C)[C@H](O)[C@@H](O)[C@H]7O)C(C)(C)[C@@H]6CC[C@@]5(C)[C@]3(C)CC4)nn2)cc1 | 6.42 | 46.9 | 0.78 | 4.66 | 33 | 0.28
C[C@@H]1O[C@@H](O[C@H]2[C@H](O[C@H]3CC[C@]4(C)[C@H]5CC=C6[C@@H]7CC(C)(C)CC[C@]7(C(=O)NCc7cn(-c8cccnc8)nn7)CC[C@@]6(C)[C@]5(C)CC[C@H]4C3(C)C)OC[C@H](O[C@@H]3O[C@H](CO)[C@@H](O)[C@H](O)[C@H]3O)[C@@H]2O)[C@H](O)[C@H](O)[C@H]1O | 37.8 | 41.1 | 9.03 | 9.94 | 20.1 | 47.2
Cc1cccc(-n2cc(CNC(=O)[C@]34CCC(C)(C)C[C@H]3C3=CC[C@@H]5[C@@]6(C)CC[C@H](O[C@@H]7OC[C@H](O[C@@H]8O[C@H](CO)[C@@H](O)[C@H](O)[C@H]8O)[C@H](O)[C@H]7O[C@@H]7O[C@@H](C)[C@H](O)[C@@H](O)[C@H]7O)C(C)(C)[C@@H]6CC[C@@]5(C)[C@]3(C)CC4)nn2)c1 | 4.33 | 3.93 | 3.93 | 4.64 | 3.49 | 0.18
COc1ccc(-n2cc(CNC(=O)[C@]34CCC(C)(C)C[C@H]3C3=CC[C@@H]5[C@@]6(C)CC[C@H](O[C@@H]7OC[C@H](O[C@@H]8O[C@H](CO)[C@@H](O)[C@H](O)[C@H]8O)[C@H](O)[C@H]7O[C@@H]7O[C@@H](C)[C@H](O)[C@@H](O)[C@H]7O)C(C)(C)[C@@H]6CC[C@@]5(C)[C@]3(C)CC4)nn2)cc1 | 1.13 | 0.55 | 0.79 | 2.48 | 3.58 | 4.86
